Data set [1] in a line: Cytotoxicity against human NCI60 cells after 48 hrs by SRB assay. Type of data set: functional. As to conditions: NCI60, 48 h. In general terms: In SRB staining, fixed cells bind dye roughly in proportion to their protein.
Data set [2] concerns the target Phosphatidylinositol 4,5-bisphosphate 3-kinase catalytic subunit alpha isoform (Homo sapiens, UniProt P42336). Kind of data set: Inhibition of PI3Kalpha (unknown origin) using PIP2 as substrate after 1 hr in presence of ATP by kinase-glo luminescence assay.
A short description of data set [3]: Cytotoxicity against human A549 cells after 72 hrs by MTT assay. The class given is functional, cell-based. As to conditions: A549, 72 h. A general note: Tetrazolium assays rely on reduction of a dye to a coloured formazan, in cell work by metabolically active cells.
The next data set can be described thus: cells. As to conditions: Homo sapiens, HCT-116, 72 h.
A further data set deals with HCT-116. As to the kind of experiment: Potency index, ratio of GSK2126458 IC50 to compound IC50 for human HCT116 cells. Type of data set: functional.
Data set [4] is described as follows: Cytotoxicity against human MDA-MB-231 cells after 72 hrs by MTT assay. Type of data set: functional, cell-based. As to conditions: MDA-MB-231, 72 h.
Data set [5] is described as follows: Cytotoxicity against human HepG2 cells after 72 hrs by MTT assay. The class given is functional, cell-based. As to conditions: HepG2, 72 h.
Data set [6] is described as follows: Aqueous solubility of the compound in pH 1 simulated gastric fluid. Type of data set: ADME.
The nature of data set [7]: Antitumor activity against human A549 cells xenografted in BALB/c nude mouse assessed as tumor volume at 3 mg/kg, ig administered via oral gavage once daily for 9 consecutive days followed by subsequent dosing on day 13 and 14 measured on day 4 (reference value: 419.55 +/- 104.72 mm3). The class given is functional. In general terms: Xenograft models place foreign cells or tissue in a host animal.

Data set [8] can be described thus: Antitumor activity against human A549 cells xenografted in BALB/c nude mouse assessed as tumor volume at 3 mg/kg, ig administered via oral gavage once daily for 9 consecutive days followed by subsequent dosing on day 13 and 14 measured on day 18 (reference value: 3045.91 +/- 854.27 mm3). Type of data set: functional.
Data set [9] concerns Mus musculus. As to the kind of experiment: Toxicity in nude BALB/c mouse xenografted with human A549 cells assessed as body weight at 3 mg/kg, ig administered via oral gavage once daily for 9 consecutive days followed by subsequent dosing on day 13 and 14 measured on day 4 (reference value: 24.77 +/- 0.93 g). Type of data set: organism-based. As to conditions: in vivo.
A short description of data set [10]: Cytotoxicity against human U87MG cells after 72 hrs by MTT assay. The class given is functional, cell-based, U-87MG ATCC. As to conditions: U-87 MG.
Data set [11] concerns Mus musculus. Kind of data set: Toxicity in nude BALB/c mouse xenografted with human A549 cells assessed as body weight at 3 mg/kg, ig administered via oral gavage once daily for 9 consecutive days followed by subsequent dosing on day 13 and 14 measured on day 8 (reference value: 25.66 +/- 1.04 g). The class given is organism-based. As to conditions: in vivo.
Data set [12] can be described thus: Antitumor activity against human A549 cells xenografted in BALB/c nude mouse assessed as tumor growth inhibition at 3 mg/kg, ig administered via oral gavage once daily for 9 consecutive days followed by subsequent dosing on days 13 and 14 measured on day 30 relative to control. As to conditions: 720 h, read-out: TGI. Type of data set: functional.
The test system of data set [13] is Mus musculus. Kind of data set: Toxicity in nude BALB/c mouse xenografted with human A549 cells assessed as body weight at 3 mg/kg, ig administered via oral gavage once daily for 9 consecutive days followed by subsequent dosing on day 13 and 14 measured on day 1 (reference value: 24.38 +/- 0.76 g). Type of data set: organism-based. As to conditions: in vivo.
Data set [14] is described as follows: Antitumor activity against human A549 cells xenografted in BALB/c nude mouse assessed as tumor volume at 3 mg/kg, ig administered via oral gavage once daily for 9 consecutive days followed by subsequent dosing on day 13 and 14 measured on day 8 (reference value: 840.07 +/- 205.19 mm3). Type of data set: functional.
Data set [15] has as its system Mus musculus. Kind of data set: Toxicity in nude BALB/c mouse xenografted with human A549 cells assessed as body weight at 3 mg/kg, ig administered via oral gavage once daily for 9 consecutive days followed by subsequent dosing on day 13 and 14 measured on day 18 (reference value: 27.75 +/- 1.41 g). Type of data set: organism-based. As to conditions: in vivo.
Data set [16] is described as follows: Antitumor activity against human A549 cells xenografted in BALB/c nude mouse assessed as tumor volume at 3 mg/kg, ig administered via oral gavage once daily for 9 consecutive days followed by subsequent dosing on day 13 and 14 measured on day 11 (reference value: 1327.66 +/- 404.92 mm3). The class given is functional.
Data set [17] relates to Mus musculus. As to the kind of experiment: Toxicity in nude BALB/c mouse xenografted with human A549 cells assessed as body weight at 3 mg/kg, ig administered via oral gavage once daily for 9 consecutive days followed by subsequent dosing on day 13 and 14 measured on day 15 (reference value: 27.12 +/- 1.43 g). The class given is organism-based. As to conditions: in vivo.

Data set [18] can be described thus: Antitumor activity against human A549 cells xenografted in BALB/c nude mouse assessed as tumor volume at 3 mg/kg, ig administered via oral gavage once daily for 9 consecutive days followed by subsequent dosing on day 13 and 14 measured on day 1 (reference value: 156.87 +/- 22.32 mm3). Type of data set: functional.
Data set [19] has as its system Mus musculus. As to the kind of experiment: Toxicity in nude BALB/c mouse xenografted with human A549 cells assessed as body weight at 3 mg/kg, ig administered via oral gavage once daily for 9 consecutive days followed by subsequent dosing on day 13 and 14 measured on day 11 (reference value: 26.11 +/- 1.06 g). The class given is organism-based. As to conditions: in vivo.

Data set [20] can be described thus: Antitumor activity against human A549 cells xenografted in BALB/c nude mouse assessed as tumor volume at 3 mg/kg, ig administered via oral gavage once daily for 9 consecutive days followed by subsequent dosing on day 13 and 14 measured on day 15 (reference value: 2071.51 +/- 682.84 mm3). The class given is functional.
Data set [21] in a line: Antitumor activity against human Bel7404 cells xenografted in BALB/c nude mouse assessed as tumor growth inhibition at 50 mg/kg, ig administered via oral gavage once daily for 14 consecutive days measured on day 29. As to conditions: BEL-7404, po, 696 h, read-out: TGI. Type of data set: functional.
Data set [22] is described as follows: Antitumor activity against human Bel7404 cells xenografted in BALB/c nude mouse assessed as tumor volume at 50 mg/kg, ig administered via oral gavage once daily for 14 consecutive days measured on day 3 (reference value: 176.17 +/- 57.63 mm3). Type of data set: functional, BEL-7404.
Data set [23] is described as follows: Antitumor activity against human Bel7404 cells xenografted in BALB/c nude mouse assessed as tumor volume at 50 mg/kg, ig administered via oral gavage once daily for 14 consecutive days measured on day 10 (reference value: 425.92 +/- 102.32 mm3). The class given is functional, BEL-7404.
Data set [24] in a line: Antitumor activity against human Bel7404 cells xenografted in BALB/c nude mouse assessed as tumor volume at 50 mg/kg, ig administered via oral gavage once daily for 14 consecutive days measured on day 7 (reference value: 284.68 +/- 74.36 mm3). Type of data set: functional, BEL-7404.
The nature of data set [25]: Antitumor activity against human Bel7404 cells xenografted in BALB/c nude mouse assessed as tumor volume at 50 mg/kg, ig administered via oral gavage once daily for 14 consecutive days measured on day 14 (reference value: 589.54 +/- 162.22 mm3). Type of data set: functional, BEL-7404.
Data set [26] is described as follows: Antitumor activity against human Bel7404 cells xenografted in BALB/c nude mouse assessed as tumor volume at 50 mg/kg, ig administered via oral gavage once daily for 14 consecutive days measured on day 1 (reference value: 101.62 +/- 26.48 mm3). Type of data set: functional, BEL-7404.
Data set [27] in a line: Antitumor activity against human Bel7404 cells xenografted in BALB/c nude mouse assessed as tumor volume at 50 mg/kg, ig administered via oral gavage once daily for 14 consecutive days measured on day 17 (reference value: 747.40 +/- 169.75 mm3). The class given is functional, BEL-7404.

Converted amounts (≈) assume the structure as drawn. Some results are limits rather than exact numbers.

In general, GI50 refers to the concentration giving 50% growth inhibition. High values mean less potent growth inhibition, low ones more potent growth inhibition. For orientation: IC50 means the concentration at which inhibition is half-maximal. What is called solubility is the dissolved amount per volume that the medium holds. Higher therefore signals much dissolved substance.

Phosphatidylinositol 4,5-bisphosphate 3-kinase catalytic subunit alpha isoform, sequence (P42336 whole entry, canonical isoform): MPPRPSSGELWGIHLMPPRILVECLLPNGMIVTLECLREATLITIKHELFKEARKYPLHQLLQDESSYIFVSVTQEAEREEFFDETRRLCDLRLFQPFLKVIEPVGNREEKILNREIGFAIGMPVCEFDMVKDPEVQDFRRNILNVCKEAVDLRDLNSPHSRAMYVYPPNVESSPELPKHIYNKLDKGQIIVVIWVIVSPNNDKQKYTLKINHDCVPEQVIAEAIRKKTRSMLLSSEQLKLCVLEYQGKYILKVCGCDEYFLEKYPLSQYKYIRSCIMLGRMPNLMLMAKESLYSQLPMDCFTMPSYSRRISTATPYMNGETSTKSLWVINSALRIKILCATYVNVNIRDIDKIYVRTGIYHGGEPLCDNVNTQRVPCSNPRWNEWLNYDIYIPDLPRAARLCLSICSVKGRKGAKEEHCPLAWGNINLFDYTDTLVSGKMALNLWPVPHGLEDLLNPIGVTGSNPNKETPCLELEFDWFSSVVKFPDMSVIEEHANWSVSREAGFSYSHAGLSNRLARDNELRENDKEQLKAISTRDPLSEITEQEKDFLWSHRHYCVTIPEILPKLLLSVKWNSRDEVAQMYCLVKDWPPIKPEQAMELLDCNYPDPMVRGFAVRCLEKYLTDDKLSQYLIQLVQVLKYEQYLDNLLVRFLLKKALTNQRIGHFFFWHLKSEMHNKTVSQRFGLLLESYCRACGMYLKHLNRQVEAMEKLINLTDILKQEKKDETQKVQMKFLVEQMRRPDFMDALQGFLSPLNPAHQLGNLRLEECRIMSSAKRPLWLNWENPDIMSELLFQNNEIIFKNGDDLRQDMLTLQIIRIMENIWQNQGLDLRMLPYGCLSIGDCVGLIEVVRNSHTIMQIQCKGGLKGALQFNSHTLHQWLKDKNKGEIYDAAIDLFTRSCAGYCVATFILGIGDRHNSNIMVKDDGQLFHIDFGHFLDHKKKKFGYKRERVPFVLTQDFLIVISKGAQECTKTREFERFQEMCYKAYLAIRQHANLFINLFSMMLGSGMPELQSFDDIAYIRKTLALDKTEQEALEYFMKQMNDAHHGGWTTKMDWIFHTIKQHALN

Take `CC[C@@]1(O)C(=O)OCc2c1cc1n(c2=O)Cc2cc3ccccc3nc2-1` [CAMPTOTHECIN]: the GI50 in data set [1] amounted to 39.8 nM.
As to `COc1ncc(-c2ccc3nccc(-c4ccc(CN5CCOCC5)cc4)c3c2)cc1NS(=O)(=O)c1ccc(F)cc1F`, the 50% inhibitory concentration (IC50) in data set [2] turned out to be 1.1 nM; in data set [3] it was 70 nM.
The compound `CC(=O)O[C@H]1C(=O)[C@@]2(C)[C@H]([C@H](OC(=O)c3ccccc3)[C@]3(O)C[C@H](OC(=O)[C@H](O)[C@@H](NC(=O)c4ccccc4)c4ccccc4)C(C)=C1C3(C)C)[C@]1(OC(C)=O)CO[C@@H]1C[C@@H]2O` [PACLITAXEL] had a GI50 in [1] of 31.5 nM.
`COc1ncc(-c2ccc3nccc(-c4ccc(Cn5cncn5)cc4)c3c2)cc1NS(=O)(=O)c1ccc(F)cc1F`: the IC50 was 16 nM in [3] and 8.7 nM in “cells”. For the same compound, in the data set on HCT-116, the “Ratio IC50” value came to 18.
Regarding `O=S(=O)(Nc1cc(-c2ccc3nccc(-c4ccc(CN5CCOCC5)cc4)c3c2)cnc1Cl)c1ccc(F)cc1`, the half-maximal inhibitory concentration (IC50) was 53 nM in [3], 2580 nM in data set [4], 41 nM in the data set “cells” and 7740 nM in data set [5].
Consider `COc1ncc(-c2ccc3nccc(-c4ccnnc4)c3c2)cc1NS(=O)(=O)c1ccc(F)cc1F` [OMIPALISIB], for which the solubility in data set [6] was 200 µg/mL (≈ 396 µM). The Activity is listed as 261.5 mm3 in data set [7]; 968.24 mm3 in data set [8]; 24.55 g with Mus musculus [9]; 22.98 g in the data set with Mus musculus [11]; 24.7 g in the data set with Mus musculus [13]; 396.45 mm3 in [14]. Also, the Activity in the data set with Mus musculus [15] worked out at 22.22 g; in data set [16] it was 520.69 mm3; with Mus musculus [17], 20.92 g; in data set [18], 146.36 mm3; with Mus musculus [19], 21.63 g; in data set [20], 669.43 mm3. For the same compound, the results for the IC50 (in [3]; in [10]; in “cells”) were 140 nM, 537 nM and 154 nM, respectively. In addition, in data set [12], the inhibition in vivo at 3 mg/kg was determined as 65.9%.
For the compound `CNC(=O)c1cc(Oc2ccc(NC(=O)Nc3ccc(Cl)c(C(F)(F)F)c3)cc2)ccn1` [SORAFENIB], the inhibition in vivo at 50 mg/kg in [21] was 43.8%. The Activity in data set [22] is 136.23 mm3; in data set [23] it was 257.88 mm3; in data set [24], 206.94 mm3; in data set [25], 334.93 mm3; in [26] it was 97.11 mm3; in data set [27], 413.79 mm3.
For `O=S(=O)(Nc1cc(-c2ccc3nccc(-c4ccc(Cn5cncn5)cc4)c3c2)cnc1Cl)c1ccc(F)cc1`, the IC50 in [3] is 178 nM; in data set [4], 228 nM; in “cells” it was 33 nM; in [5] it was 9600 nM.
Taken in the same sequence, the figures for `CN(CCO)Cc1ccc(-c2ccnc3ccc(-c4cnc(Cl)c(NS(=O)(=O)c5ccc(F)cc5)c4)cc23)cc1` were 15 nM, 260 nM, 24 nM and 1910 nM.
On to `COc1ncc(-c2ccc3nccc(-c4ccc(Cn5cncn5)cc4)c3c2)cc1NS(=O)(=O)c1ccc(F)cc1`, for which the IC50 in data set [3] came out at 33 nM; in [4] it was 283 nM; in “cells”, 26 nM; in data set [5], 12700 nM.
Take `COc1ncc(-c2ccc3nccc(-c4ccc(CN(C)CCO)cc4)c3c2)cc1NS(=O)(=O)c1ccc(F)cc1F`: the IC50 was 20 nM in data set [3] and 4.7 nM in the data set “cells”. The “Ratio IC50” value in the data set with HCT-116 is more than 30.
Regarding `COc1ncc(-c2ccc3nccc(-c4ccc(CN(C)CCO)cc4)c3c2)cc1NS(=O)(=O)c1ccc(F)cc1`, the IC50 came out at 22 nM in [3], 210 nM in data set [4], 25 nM in the data set “cells” and 1850 nM in [5].
On to `COc1ncc(-c2ccc3nccc(-c4ccc(CN(C)CCN(C)C)cc4)c3c2)cc1NS(=O)(=O)c1ccc(F)cc1F`, for which the half-maximal inhibitory concentration (IC50) turned out to be 2.5 nM in data set [2], 13 nM in data set [3] and 254 nM in [10].
For the compound `CN(C)Cc1ccc(-c2ccnc3ccc(-c4cnc(Cl)c(NS(=O)(=O)c5ccc(F)cc5F)c4)cc23)cc1`, the concentration for half-maximal inhibition (IC50) came out at 251 nM in [3], 53 nM in [4], 24 nM in the data set “cells” and 3860 nM in data set [5].
With `COc1ncc(-c2ccc3nccc(-c4ccc(CN5CCOCC5)cc4)c3c2)cc1NS(=O)(=O)c1ccc(F)cc1`, the IC50 in data set [3] amounted to 17 nM; in [4] it was 1970 nM; in the data set “cells” it was 30 nM; in data set [5], 27200 nM.
Taken in the same sequence, the figures for `CN(CCO)Cc1ccc(-c2ccnc3ccc(-c4cnc(Cl)c(NS(=O)(=O)c5ccc(F)cc5F)c4)cc23)cc1` were 121 nM, 337 nM, 41 nM and 2880 nM.
